Results taken from PubChem BioAssay AID2060905 (Molecular Pharmacology Branch, DTP, NCI, 2025).

Tested on: 282377-053-R-J1-PDC complex spheroid viability
Experiment: Anticancer human tumor 282377-053-R-J1-PDC patient-derived colon adenocarcinoma cell line growth inhibition [RAS]
Conditions: for viability, T/C: stronger effect = lower value
In short: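 Multi-cell-type spheroids: tumor cells plus HUVEC endothelial cells and mesenchymal stem cells. RAS-pathway inhibitors were combined with targeted agents, each dosed in half-log steps down from clinical Cmax, or from 10 microM when Cmax was unknown.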
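Note: spheroids exposed to agents for seven days before readout.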
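Throughout, for viability, T/C: luminescence viability as percent of DMSO vehicle control wells.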

O=C(c1ccc(F)c(F)c1Nc1ccc(I)cc1F)N1CC(O)([C@@H]2CCCCN2)C1 + CCn1c(-c2cccnc2C(C)OC)c2c3cc(ccc31)N1CCOC(CC(NC(=O)C(C(C)C)N(C)C(=O)C3(F)CCN(C(=O)C#CC(C)(C)N(C)C)CC3)C(=O)N3CCCC(N3)C(=O)OCC(C)(C)C2)C1
IC50 (curve of first compound, second compound 0.000949 µM): 74.2 nM | IC50 (curve of first compound, second compound 0.003 µM): 125 nM | IC50 (curve of first compound, second compound 0.00949 µM): 93.5 nM | IC50 (curve of first compound, second compound 0.03 µM): 165 nM | IC50 (curve of first compound, second compound 0.0949 µM): 25 nM | IC50 (curve of first compound, second compound 0.3 µM): 73.8 nM | viability, T/C (second compound 0.000949 µM, first compound 0.00316 µM): 66.2% | viability, T/C (second compound 0.000949 µM, first compound 0.01 µM): 80.3% | viability, T/C (second compound 0.000949 µM, first compound 0.0316 µM): 78.2% | viability, T/C (second compound 0.000949 µM, first compound 0.1 µM): 41.3% | viability, T/C (second compound 0.000949 µM, first compound 0.316 µM): 30.4% | viability, T/C (second compound 0.000949 µM, first compound 1 µM): 17.1% | viability, T/C (second compound 0.003 µM, first compound 0.00316 µM): 70.2% | viability, T/C (second compound 0.003 µM, first compound 0.01 µM): 74.1% | viability, T/C (second compound 0.003 µM, first compound 0.0316 µM): 71.4% | viability, T/C (second compound 0.003 µM, first compound 0.1 µM): 42.2% | viability, T/C (second compound 0.003 µM, first compound 0.316 µM): 42.6% | viability, T/C (second compound 0.003 µM, first compound 1 µM): 14.7% | viability, T/C (second compound 0.00949 µM, first compound 0.00316 µM): 74.3% | viability, T/C (second compound 0.00949 µM, first compound 0.01 µM): 90% | viability, T/C (second compound 0.00949 µM, first compound 0.0316 µM): 48.3% | viability, T/C (second compound 0.00949 µM, first compound 0.1 µM): 59.2% | viability, T/C (second compound 0.00949 µM, first compound 0.316 µM): 29.2% | viability, T/C (second compound 0.00949 µM, first compound 1 µM): 22.5% | viability, T/C (second compound 0.03 µM, first compound 0.00316 µM): 82.8% | viability, T/C (second compound 0.03 µM, first compound 0.01 µM): 75.3% | viability, T/C (second compound 0.03 µM, first compound 0.0316 µM): 70.3% | viability, T/C (second compound 0.03 µM, first compound 0.1 µM): 56% | viability, T/C (second compound 0.03 µM, first compound 0.316 µM): 41.6% | viability, T/C (second compound 0.03 µM, first compound 1 µM): 21% | viability, T/C (second compound 0.0949 µM, first compound 0.00316 µM): 67.2% | viability, T/C (second compound 0.0949 µM, first compound 0.01 µM): 81.3% | viability, T/C (second compound 0.0949 µM, first compound 0.0316 µM): 43.8% | viability, T/C (second compound 0.0949 µM, first compound 0.1 µM): 33.7% | viability, T/C (second compound 0.0949 µM, first compound 0.316 µM): 37.9% | viability, T/C (second compound 0.0949 µM, first compound 1 µM): 20.6% | viability, T/C (second compound 0.3 µM, first compound 0.00316 µM): 64.3% | viability, T/C (second compound 0.3 µM, first compound 0.01 µM): 91.2% | viability, T/C (second compound 0.3 µM, first compound 0.0316 µM): 53.7% | viability, T/C (second compound 0.3 µM, first compound 0.1 µM): 46.6% | viability, T/C (second compound 0.3 µM, first compound 0.316 µM): 30.1% | viability, T/C (second compound 0.3 µM, first compound 1 µM): 17.6%

C[C@@H](NC(=O)c1ncnc(N)c1Cl)c1ncc(C(=O)Nc2cc(C(F)(F)F)c(Cl)cn2)s1
viability, T/C (compound 0.0316 µM): 92.9% [middle of 4 runs] | viability, T/C (compound 0.1 µM): 94.9% [middle of 4 runs] | viability, T/C (compound 0.316 µM): 92.8% [middle of 4 runs] | viability, T/C (compound 1 µM): 94.9% [middle of 4 runs] | viability, T/C (compound 3.16 µM): 81.1% [middle of 4 runs] | viability, T/C (compound 10 µM): 72.1% [middle of 4 runs] | IC50 (curve of compound): > 10000 nM
